These are literature values, as cited in US10293050B2, “Macrolide dosage forms” (Micell Technologies, Inc., priority 2010, dated 2019).

One may read the bioavailability as dose-corrected exposure relative to a reference, in per cent.

Assay in data set [1]: not given
This is another data set of the same source.

Assay in data set [2]: not given
This is another data set of the same source.

As for `CO[C@H]1C[C@@H]2CC[C@@H](C)[C@@](O)(O2)C(=O)C(=O)N2CCCC[C@H]2C(=O)O[C@H]([C@H](C)C[C@@H]2CC[C@@H](O)[C@H](OC)C2)CC(=O)[C@H](C)/C=C(\C)[C@@H](O)[C@@H](OC)C(=O)[C@H](C)C[C@H](C)/C=C/C=C/C=C/1C` [Rapamycin], the aqueous solubility entry is “poor aqueous solubility”. Moreover, in data set [1] (Rapamune oral tablets or solution), the bioavailability is listed as under 14%. Moreover, the hepatic biotransformation result in data set [1] (in vivo) is listed as “extensive hepatic biotransformation”. In addition, the blood concentrations in data set [1] (once daily oral dosing, immunosuppressive dose 2 or 5 mg daily) was 6 to 50 ng/mL. The protein binding result in data set [2] is recorded as “high protein binding”.
